Experimental findings from US9969723B2, “3-(4-(benzyloxy)phenyl)hex-4-ynoic acid derivative, method of preparing same and pharmaceutical composition for preventing and treating metabolic disease including same as effective ingredient” (HYUNDAI PHARM CO., LTD, priority 2014, dated 2018) are described below.

Like-named read-outs stand apart in the source and are kept apart here.

Data set [1] concerns Male Goto-Kakizaki (GK) rats, the type II diabetes animal model (not obesity). The data set is described as follows: Oral glucose tolerance test (OGTT) 2. The format is in vivo, rat. On the procedure: (§1) Male Goto-Kakizaki (GK) rats at 22˜23 weeks, the type II diabetes animal model (not obesity), were adapted at least for 7 days. Only healthy animals were selected thereafter, followed by OGTT. After fasting for 16˜18 hours, 5 rats per group were randomly selected and orally administered with the compounds prepared in Examples 5, 9, 14, 28, 37, and 47 at the dose of 0.3˜10 mg/kg. At this time, 5% polyethyleneglycol (PEG) was orally administered at the same dose to the non-treated group rats. 60 minutes after the sample administration, glucose (4 g/kg) was orally administered thereto at the dose of 5 ml/kg. Then, blood glucose was measured by using Accu-chek active strip (Roche diagnostic Co.). The time for the measurement was set at 60 minutes before the glucose administration (−60), 0 minute, 20 minutes, 40 minutes, 60 minutes, and 120 minutes after the glucose administration, and blood glucose was measured through tail vein puncture.

Data set [2] has as its target T1, GPR40 (Homo sapiens (Human), UniProt O14842). Put plainly: Calcium flux GPCR agonist assay (Millipore GPCR profiler, FLIPR TETRA). Background: A change in cytosolic calcium serves as a functional read-out for many receptors and channels.
Experimental: The compounds of Examples of the invention dissolved in DMSO (dimethyl sulfoxide), PBS (phosphate buffered saline), and DW (distilled water), etc, were diluted three-times with EMD Millipore's GPCR profiler assay buffer. […] Each well was filled with EMD Millipore's GPCR profiler assay buffer. The said EMD Millipore's GPCR profiler assay buffer was HBSS (Hanks Balanced Salt Solution) containing 20 mM HEPES (4-(2-hydroxyethyl)-1-piperazineethanesulfonic acid) and 2.5 mM Probenecid (4-(dipropylsulfamoyl)benzoic acid), whose pH was regulated as 7.4.
The compounds of Examples were duplicated at each concentration. […] Agonist assay was performed by using FLIPR^TETRA. Fluorescence and luminescence baseline were measured. […] To measure the activity of those compounds of Examples, GPCR activity assay was performed for 180 seconds.
When the assay data were not satisfactory, an additional experiment was performed.
All the concentration dependent graphs were made by using GraphPad Prism. The graph was modified by Sigmoidal dose response.
Data set [3] concerns Male OLETF (Otsuka Long-Evans Tokushima fatty) rats, the type II diabetes animal model (obesity). Put plainly: Oral glucose tolerance test (OGTT) 3. The format is in vivo, rat. On the procedure: as §1, with “OLETF (Otsuka Long-Evans Tokushima fatty)” for “Goto-Kakizaki (GK)”, “29˜30” for “22˜23”, “(obesity),” for “(not obesity),”, “1˜10” for “0.3˜10”
Data set [4] concerns the target CYP2D6 (Homo sapiens (Human), UniProt P10635). Put plainly: CYP inhibition (Invitrogen Vivid kit). The data set is classed as in vitro ADME. To be noted: probe Vivid CYP450 substrate, read-out: CYP inhibition (%) 2D6. From the text:
(§2) CYP is the enzyme involved in drug metabolism. So, the inhibition of this enzyme can change the prediction of dose of a drug and toxicity caused by the co-treatment with other drugs. Therefore, the inventors measured the inhibitory effect of the compounds of Examples of the invention on endogenous CYP3A4, CYP2C9, CYP1A2, CYP2D6, and CYP2C19. At this time, Invitrogen (P2862) was used as the CYP2D6 inhibition kit, and BD GENTEST (459100, 459300, 459400, 459500) was used as the CYP1A2, CYP2C9, CYP2C19, and CYP3A4 inhibition kit. To prepare the Invitrogen kit, the test sample was diluted in distilled water at 2.5× of the final experimental concentration.
P450 BACULOSOMES® reagent and reproducer (100×) included in Invitrogen kit were diluted in Vivid® CYP450 reaction buffer (2×) at the concentration that matched the target CYP450. The prepared 2.5× sample (80 μL) and the diluted P450 BACULOSOMES® reagent mixture (100 μL) were mixed in each well of U-bottom 96-well plate, followed by pre-culture for 20 minutes. Vivid® CYP450 substrate and NADP+ (100×) were diluted in Vivid® CYP450 reaction buffer (2×) at the concentration that matched the target CYP450 and the substrate. Upon completion of the pre-culture, substrate-NADP (nicotinamide adenine dinucleotide phosphate) mixed solution (20 μL) was added thereto, followed by reaction for 1 hour. Upon completion of the reaction, the reactant was transferred onto the white plate, and then fluorescence was measured with a microplate reader (CYP 2D6 excitation wavelength: 400 nm, absorption wavelength: 502 nm). […]

The target in data set [5] is CYP2C19 (Homo sapiens (Human), UniProt P33261). Put plainly: CYP inhibition (BD GENTEST kit). The format is in vitro ADME. To be noted: pH 7.4, read-out: CYP inhibition (%) 2C19. On the procedure:
(§3) CYP is the enzyme involved in drug metabolism. So, the inhibition of this enzyme can change the prediction of dose of a drug and toxicity caused by the co-treatment with other drugs. Therefore, the inventors measured the inhibitory effect of the compounds of Examples of the invention on endogenous CYP3A4, CYP2C9, CYP1A2, CYP2D6, and CYP2C19. […] To prepare the Invitrogen kit, the test sample was diluted in distilled water at 2.5× of the final experimental concentration.
(§4) The test sample for BD GENTEST kit was diluted in acetonitrile at 50× of the final experimental concentration. NADPH-coenzyme mixture was prepared by diluting the coenzyme, G6PDH, and regulatory protein included in the kit with distilled water at the concentration instructed by the kit. The prepared 50× sample (4 μL) and the NADPH-coenzyme mixture (96 μL) were mixed in each well of U-bottom 96-well plate, followed by pre-culture for 10 minutes in a 37° C. incubator. Enzyme/substrate mixed solution was prepared by diluting the buffer (0.5 M potassium phosphate, pH 7.4), each CYP450 enzyme/substrate mixed solution included in the kit with distilled water at the instructed concentration. Upon completion of the pre-culture, 100 μL of the enzyme/substrate mixed solution was added in each well of the plate, followed by culture in a 37° C. incubator for 15 minutes (CYP 1A2), 30 minutes (CYP 3A4 and CYP 2C19) or 1 and half hours (CYP 2C9). […] The values obtained above were converted into % as the inhibition rate of the sample by the value of the non-treated group.

Data set [6] deals with CYP2C9 (Homo sapiens (Human), UniProt P11712). Put plainly: CYP inhibition (BD GENTEST kit). The data set is classed as in vitro ADME. To be noted: pH 7.4, read-out: CYP inhibition (%) 2C9. As for the experimental part:
as §3, §4

The target of data set [7] is CYP3A4 (Homo sapiens (Human), UniProt P08684). Put plainly: CYP inhibition (BD GENTEST kit). The format is in vitro ADME. To be noted: pH 7.4, read-out: CYP inhibition (%) 3A4.
CYP3A4, sequence (P08684 whole entry): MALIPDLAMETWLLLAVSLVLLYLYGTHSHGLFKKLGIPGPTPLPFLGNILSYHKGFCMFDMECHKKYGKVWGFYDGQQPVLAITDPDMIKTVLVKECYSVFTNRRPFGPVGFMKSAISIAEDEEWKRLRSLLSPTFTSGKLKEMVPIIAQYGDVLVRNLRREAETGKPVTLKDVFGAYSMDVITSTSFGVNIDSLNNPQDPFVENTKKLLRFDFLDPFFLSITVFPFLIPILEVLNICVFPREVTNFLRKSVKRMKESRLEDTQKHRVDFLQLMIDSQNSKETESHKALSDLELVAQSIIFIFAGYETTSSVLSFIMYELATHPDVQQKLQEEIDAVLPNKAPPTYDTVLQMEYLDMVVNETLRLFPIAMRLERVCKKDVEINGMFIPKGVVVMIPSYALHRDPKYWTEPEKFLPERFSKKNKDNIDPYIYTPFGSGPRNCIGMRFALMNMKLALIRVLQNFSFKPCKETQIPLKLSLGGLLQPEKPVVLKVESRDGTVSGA
Excerpt: as §2
The test sample for BD GENTEST kit was diluted in acetonitrile at 50× of the final experimental concentration. NADPH-coenzyme mixture was prepared by diluting the coenzyme, G6PDH, and regulatory protein included in the kit with distilled water at the concentration instructed by the kit. The prepared 50× sample (4 μL) and the NADPH-coenzyme mixture (96 μL) were mixed in each well of U-bottom 96-well plate, followed by pre-culture for 10 minutes in a 37° C. incubator. Enzyme/substrate mixed solution was prepared by diluting the buffer (0.5 M potassium phosphate, pH 7.4), each CYP450 enzyme/substrate mixed solution included in the kit with distilled water at the instructed concentration. Upon completion of the pre-culture, 100 μL of the enzyme/substrate mixed solution was added in each well of the plate, followed by culture in a 37° C. incubator for 15 minutes (CYP 1A2), 30 minutes (CYP 3A4 and CYP 2C19) or 1 and half hours (CYP 2C9). Upon completion of the reaction, the reactant was transferred onto the white plate, and then fluorescence was measured with a microplate reader (CYP 1A2 and CYP 2C19 excitation wavelength: 410 nm, absorption wavelength: 460 nm; CYP 2C9 and CYP 3A4 excitation wavelength: 409 nm, absorption wavelength: 530 nm). The values obtained above were converted into % as the inhibition rate of the sample by the value of the non-treated group.

Data set [8] deals with CYP1A2 (Homo sapiens (Human), UniProt P05177). Put plainly: CYP inhibition (BD GENTEST kit). The data set is classed as in vitro ADME. The conditions noted are these: pH 7.4. As for the experimental part:
as §3, §4

The target of data set [9] is T1, GPR40. Put plainly: GPR40 protein activity by intracellular calcium concentration (Fluo-4, Flexstation 3) in transfected HEK-293 cells. To be noted: HEK-293 cells transfected with human GPR40, intracellular calcium; read-out: EC50. The data set is classed as cell-based.
[10] abbreviates: oral dose 10 mg/kg, values in text.
Setting [11] is: CYP2D6 P450 BACULOSOMES reagent (Invitrogen kit P2862).
[12] abbreviates: CYP2C19 enzyme of the BD GENTEST CYP2C19 inhibition kit.
[13] abbreviates: CYP2C9 enzyme of the BD GENTEST CYP2C9 inhibition kit.
Where [14] appears, read: CYP3A4 enzyme of the BD GENTEST CYP3A4 inhibition kit.

T1 sequence (O14842 whole entry): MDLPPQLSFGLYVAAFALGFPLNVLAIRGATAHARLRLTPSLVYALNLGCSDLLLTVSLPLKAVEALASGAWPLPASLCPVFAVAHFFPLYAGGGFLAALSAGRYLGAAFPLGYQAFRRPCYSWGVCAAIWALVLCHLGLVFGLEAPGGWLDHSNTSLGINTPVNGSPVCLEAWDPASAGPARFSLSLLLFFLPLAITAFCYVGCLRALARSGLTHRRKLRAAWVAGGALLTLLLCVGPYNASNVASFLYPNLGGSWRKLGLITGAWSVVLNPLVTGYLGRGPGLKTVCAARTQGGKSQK
CYP2C9, sequence (P11712 whole entry): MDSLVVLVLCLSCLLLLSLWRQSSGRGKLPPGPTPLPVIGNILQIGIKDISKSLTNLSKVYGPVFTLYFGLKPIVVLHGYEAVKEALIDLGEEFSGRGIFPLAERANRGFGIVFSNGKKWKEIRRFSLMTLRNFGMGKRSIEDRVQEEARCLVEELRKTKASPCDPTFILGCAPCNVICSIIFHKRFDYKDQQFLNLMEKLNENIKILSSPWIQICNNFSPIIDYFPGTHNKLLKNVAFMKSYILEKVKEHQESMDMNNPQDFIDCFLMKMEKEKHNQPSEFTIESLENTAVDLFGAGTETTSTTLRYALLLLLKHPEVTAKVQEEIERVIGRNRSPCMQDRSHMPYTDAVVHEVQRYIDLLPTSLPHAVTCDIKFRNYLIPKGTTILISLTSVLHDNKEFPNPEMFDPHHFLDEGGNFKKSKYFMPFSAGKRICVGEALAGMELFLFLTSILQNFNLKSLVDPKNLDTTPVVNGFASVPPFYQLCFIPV
CYP2D6, sequence (P10635 whole entry): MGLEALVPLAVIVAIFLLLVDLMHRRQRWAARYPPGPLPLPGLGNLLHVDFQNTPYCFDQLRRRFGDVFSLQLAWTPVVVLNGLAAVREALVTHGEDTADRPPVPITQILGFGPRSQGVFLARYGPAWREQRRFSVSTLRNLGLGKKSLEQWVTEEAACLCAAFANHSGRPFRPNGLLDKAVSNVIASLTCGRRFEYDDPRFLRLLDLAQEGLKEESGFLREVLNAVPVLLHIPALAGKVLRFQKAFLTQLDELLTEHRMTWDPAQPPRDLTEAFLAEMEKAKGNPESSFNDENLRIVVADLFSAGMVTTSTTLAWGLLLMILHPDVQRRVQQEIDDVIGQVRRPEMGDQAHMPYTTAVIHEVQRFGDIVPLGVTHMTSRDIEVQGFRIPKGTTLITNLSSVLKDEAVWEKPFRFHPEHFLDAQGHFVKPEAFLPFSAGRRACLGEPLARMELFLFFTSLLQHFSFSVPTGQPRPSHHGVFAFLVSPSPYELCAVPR
CYP2C19, sequence (P33261 whole entry): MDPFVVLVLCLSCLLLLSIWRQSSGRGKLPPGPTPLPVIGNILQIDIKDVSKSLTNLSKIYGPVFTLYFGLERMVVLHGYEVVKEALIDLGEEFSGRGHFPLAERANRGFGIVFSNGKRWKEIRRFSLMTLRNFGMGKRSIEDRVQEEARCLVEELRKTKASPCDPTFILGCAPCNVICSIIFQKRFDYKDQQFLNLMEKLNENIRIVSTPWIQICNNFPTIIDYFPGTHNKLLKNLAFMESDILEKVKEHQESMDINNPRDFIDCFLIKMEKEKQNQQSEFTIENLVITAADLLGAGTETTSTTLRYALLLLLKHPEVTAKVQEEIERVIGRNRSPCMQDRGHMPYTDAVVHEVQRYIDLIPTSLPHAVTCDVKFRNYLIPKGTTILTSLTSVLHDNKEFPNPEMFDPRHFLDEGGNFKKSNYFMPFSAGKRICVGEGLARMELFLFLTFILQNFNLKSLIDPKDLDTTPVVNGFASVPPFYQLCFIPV
CYP1A2, sequence (P05177 whole entry): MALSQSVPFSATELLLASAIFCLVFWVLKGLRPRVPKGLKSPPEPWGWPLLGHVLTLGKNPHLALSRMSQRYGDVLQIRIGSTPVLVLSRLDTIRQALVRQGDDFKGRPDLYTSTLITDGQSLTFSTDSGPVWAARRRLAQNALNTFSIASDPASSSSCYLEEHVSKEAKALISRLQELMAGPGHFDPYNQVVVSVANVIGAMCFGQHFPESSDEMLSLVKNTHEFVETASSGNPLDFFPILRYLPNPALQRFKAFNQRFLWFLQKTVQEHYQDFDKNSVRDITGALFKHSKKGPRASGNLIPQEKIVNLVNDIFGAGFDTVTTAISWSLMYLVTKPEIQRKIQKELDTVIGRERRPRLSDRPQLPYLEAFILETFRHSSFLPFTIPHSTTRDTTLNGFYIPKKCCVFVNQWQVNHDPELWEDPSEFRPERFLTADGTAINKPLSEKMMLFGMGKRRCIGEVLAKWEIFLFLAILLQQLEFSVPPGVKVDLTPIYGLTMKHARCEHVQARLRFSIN

Turning to `CC#C[C@@H](CC(=O)O)c1ccc(OCc2cccc(C3=CCC4(CC3)OCCO4)c2)cc1` [Example 9, L-lysine (3S)-3-(4-(3-(1,4-dioxaspiro[4,5]dec-7-en-8-yl)benzyloxy)phenyl)hex-4-ynoate], the “% AUC” value in data set [1] (oral dose 0.3 mg/kg) is “C (under 25.0%)”; in data set [1] (oral dose 1 mg/kg), “C (under 25.0%)”; in data set [1] (oral dose 3 mg/kg) it was “A (over 35.0%)”; in data set [1] (oral dose 10 mg/kg), “A (over 35.0%)”; in data set [3] (oral dose 1 mg/kg) it was “B (25.0-35.0%)”; in [3] (oral dose 3 mg/kg), “A (over 35.0%)”. Further, the “% AUC” value in data set [3] (oral dose 10 mg/kg) is recorded as “A (over 35.0%)”. Besides, the “hypoglycemic effect by that of the non-treated group” value in [1] (setting [10]) is given as “more than 35.0%”. Moreover, the EC50 in [2] was less than 1 nM. The “hypoglycemic effect compared with the non-treated group” value in data set [3] (setting [10]) is on record as “more than 35.0%”. Moreover, in data set [4] (setting [11]), the inhibition at 1 h, 10 µM came to 13.9%. Besides, the inhibition at 30 min, 10 µM was determined as 3.7% in data set [5] (setting [12]) and 15.5% in [7] (setting [14]). The inhibition at 1.5 h, 10 µM in data set [6] (setting [13]) is 47.1%.
In the case of `O=C(O)CCc1ccc(NCc2cccc(Oc3ccccc3)c2)cc1` [Comparative Example 3, 4-(3-phenoxybenzylamino)phenylpropionic acid, reference compound], the EC50 in data set [2] came to 27 nM.
`CC#C[C@@H](CC(=O)O)c1ccc(OCc2ccc(CN3CCN(c4ccc(OCCCS(C)(=O)=O)cc4)CC3)cc2)cc1` [Example 36, (S)-3-(4-(4-((4-(4-(3-(methylsulfonyl)propoxy)phenyl)piperazine-1-yl)methyl)benzyloxy)phenyl)hex-4-ynoic acid]: in data set [4] (P450 BACULOSOMES reagent (Invitrogen Vivid CYP2D6 kit P2862)), the inhibition at 1 h, 10 µM worked out at 1.8%. Besides, the inhibition at 15 min, 10 µM in [8] was 16.6%. Also, the values for the inhibition at 30 min, 10 µM in [5] (CYP2C19 enzyme of BD GENTEST inhibition kit) and in data set [7] (CYP3A4 enzyme of BD GENTEST inhibition kit) were 10.8% and 11.5%, respectively. Besides, in data set [6] (CYP2C9 enzyme of BD GENTEST inhibition kit), the inhibition at 1.5 h, 10 µM came to 0%. In data set [9], the EC50 is greater than 300 nM.
`CC#CC(CC(=O)O)c1ccc(OCc2ccc(C3=CCC4(CC3)OCCO4)cc2)cc1` (stereo not drawn) [Example 3]: the inhibition at 1 h, 10 µM in [4] (setting [11]) came out at 6%. Moreover, the inhibition at 15 min, 10 µM in data set [8] came to 0%. In addition, the inhibition at 30 min, 10 µM is 19.4% in [5] (setting [12]) and 33.1% in data set [7] (setting [14]). In [6] (setting [13]), the inhibition at 1.5 h, 10 µM was determined as 21.1%. The 50% effective concentration (EC50) in [9] is greater than 300 nM.

For orientation: EC50 means the concentration that produces a half-maximal response. In general, inhibition refers to the change of the read-out against control, counted positive when it falls.
